Article PMC9826068 (Chemistry (Weinheim an Der Bergstrasse, Germany), 2022)
Converted amounts (≈) assume the structure as drawn.

Assays:
[1] = Aqueous solubility; format: physicochemical; conditions: aqueous medium at pH 7.4, pH 7.4, aqueous buffer
[2] = Distribution coefficient 1‐octanol / aqueous phosphate buffer; format: physicochemical; conditions: pH 7.4

| SMILES | solubility [1] [µM] | logD [2] |
| --- | --- | --- |
| O=C(NCc1cccc(CNC(=O)c2cc3ccccc3o2)c1)c1cc2ccccc2o1 [compound 28] | 3 (≈ 1.27 µg/mL) | – |
| c1cc(CNCc2cc3ccccc3o2)cc(CNCc2cc3ccccc3o2)c1 [compound 29] | 28 (≈ 11.1 µg/mL) | 4.6 |
